Data: ChEMBL document CHEMBL1629710, “Synthesis and biological evaluation of N-substituted-3,5-diphenyl-2-pyrazoline derivatives as cyclooxygenase (COX-2) inhibitors” (Eur J Med Chem, 2010)
Activity calls are given as the source filed them. The rule behind the calls is not given here.

How the values were obtained:
[1] = target: T1, Prostaglandin G/H synthase 2 (Homo sapiens) (UniProt P35354); assay: Inhibition of human recombinant COX2 expressed in baculovirus infected SF21 cell at 25 uM
T1 sequence (whole entry): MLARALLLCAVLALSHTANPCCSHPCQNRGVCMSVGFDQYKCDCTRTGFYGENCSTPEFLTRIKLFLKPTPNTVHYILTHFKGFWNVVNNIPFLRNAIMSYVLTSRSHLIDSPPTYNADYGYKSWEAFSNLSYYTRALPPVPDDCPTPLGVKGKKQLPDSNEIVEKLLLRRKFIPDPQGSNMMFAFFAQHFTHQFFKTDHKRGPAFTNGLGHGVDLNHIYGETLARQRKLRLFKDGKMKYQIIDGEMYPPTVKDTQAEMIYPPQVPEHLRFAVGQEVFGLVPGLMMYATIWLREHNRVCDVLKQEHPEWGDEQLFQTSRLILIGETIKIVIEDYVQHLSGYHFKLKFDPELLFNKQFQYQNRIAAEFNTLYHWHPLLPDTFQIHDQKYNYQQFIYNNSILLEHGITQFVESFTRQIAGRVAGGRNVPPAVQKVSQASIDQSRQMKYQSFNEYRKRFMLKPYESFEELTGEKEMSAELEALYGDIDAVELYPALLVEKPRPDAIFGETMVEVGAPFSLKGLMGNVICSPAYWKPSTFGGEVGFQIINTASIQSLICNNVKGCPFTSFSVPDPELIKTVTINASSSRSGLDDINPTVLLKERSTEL

[2] = target: Prostaglandin G/H synthase 1 (Homo sapiens) (UniProt P23219); assay: Inhibition of human COX1 from platelet microsomes
Prostaglandin G/H synthase 1 (Homo sapiens), sequence (P23219 whole entry): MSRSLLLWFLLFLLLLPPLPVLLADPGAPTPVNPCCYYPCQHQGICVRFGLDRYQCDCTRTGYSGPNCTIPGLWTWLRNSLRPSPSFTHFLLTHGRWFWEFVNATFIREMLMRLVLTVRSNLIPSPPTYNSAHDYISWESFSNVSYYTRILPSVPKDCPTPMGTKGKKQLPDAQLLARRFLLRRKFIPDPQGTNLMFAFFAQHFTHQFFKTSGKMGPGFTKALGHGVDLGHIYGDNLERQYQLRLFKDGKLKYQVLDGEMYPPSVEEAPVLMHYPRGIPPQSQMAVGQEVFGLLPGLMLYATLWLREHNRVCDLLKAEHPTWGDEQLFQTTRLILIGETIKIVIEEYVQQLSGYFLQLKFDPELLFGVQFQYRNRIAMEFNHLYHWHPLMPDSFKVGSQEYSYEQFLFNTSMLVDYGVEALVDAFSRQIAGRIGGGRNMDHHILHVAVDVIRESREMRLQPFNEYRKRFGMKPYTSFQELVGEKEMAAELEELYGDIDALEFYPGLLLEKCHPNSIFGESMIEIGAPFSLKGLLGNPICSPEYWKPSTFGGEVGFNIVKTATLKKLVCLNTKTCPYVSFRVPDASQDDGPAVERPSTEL

[3] = target: T1, Prostaglandin G/H synthase 2 (Homo sapiens); assay: Inhibition of human recombinant COX2 expressed in baculovirus infected SF21 cell at 100 uM
[4] = target: T2, Prostaglandin G/H synthase 2 (Homo sapiens, UniProt P35354); assay: Inhibition of human recombinant COX2 expressed in baculovirus infected SF21 cell; format: cell-based
T2 sequence (P35354 whole entry): T1 sequence (whole entry)

| Structure (SMILES) | inhibition [1] | inhibition [2] | inhibition [3] | IC50 [4] [µM] |
| --- | --- | --- | --- | --- |
| CS(=O)(=O)c1ccc(C2=NN(C(N)=S)C(c3ccc(F)cc3)C2)cc1 (stereo unspecified) |  | inactive | inactive |  |
| CC(=O)N1N=C(c2ccc(S(C)(=O)=O)cc2)CC1c1cccc(OCc2ccccc2)c1 (stereo unspecified) |  | inactive | inactive |  |
| CS(=O)(=O)c1ccc(C2=NN(C(N)=S)C(c3ccccc3OCc3ccccc3)C2)cc1 (stereo unspecified) | inactive | inactive |  |  |
| Cc1ccc(C2CC(c3ccc(S(C)(=O)=O)cc3)=NN2C(N)=S)cc1 (stereo unspecified) |  | inactive |  | 31.9 |
| CC(=O)N1N=C(c2ccc(S(C)(=O)=O)cc2)CC1c1ccc(C(F)(F)F)cc1 (stereo unspecified) |  | inactive |  | 19.8 |
| CS(=O)(=O)c1ccc(C2=NN(C(N)=S)C(c3ccc(OCc4ccccc4)cc3)C2)cc1 (stereo unspecified) | inactive | inactive |  |  |
| CC(=O)N1N=C(c2ccc(S(C)(=O)=O)cc2)CC1c1ccccc1OCc1ccccc1 (stereo unspecified) |  | inactive |  | 3.2 |
| CC(=O)N1N=C(c2ccc(S(C)(=O)=O)cc2)CC1c1ccc(OCc2ccccc2)cc1 (stereo unspecified) |  | inactive | inactive |  |
| CS(=O)(=O)c1ccc(C2=NN(C(N)=S)C(c3ccc(C(F)(F)F)cc3)C2)cc1 (stereo unspecified) | inactive | inactive |  |  |
| CC(=O)N1N=C(c2ccc(S(C)(=O)=O)cc2)CC1c1ccc(Cl)cc1 (stereo unspecified) |  | inactive |  | 21.7 |
| CC(=O)N1N=C(c2ccc(S(C)(=O)=O)cc2)CC1c1ccc(F)cc1 (stereo unspecified) |  | inactive |  | 19.6 |

The next lines start with the values.

| inhibition [1] | inhibition [2] | inhibition [3] | IC50 [4] [µM] | Structure (SMILES) |
| --- | --- | --- | --- | --- |
| inactive | inactive |  |  | COc1ccc(C2CC(c3ccc(S(C)(=O)=O)cc3)=NN2C(N)=S)cc1 (stereo unspecified) |
|  | inactive | inactive |  | CC(=O)N1N=C(c2ccc(S(C)(=O)=O)cc2)CC1c1ccccc1 (stereo unspecified) |
|  | inactive |  | 50.3 | CS(=O)(=O)c1ccc(C2=NN(C(N)=S)C(c3ccccc3)C2)cc1 (stereo unspecified) |
|  | inactive |  | 6.77 | CC(=O)N1N=C(c2ccc(S(C)(=O)=O)cc2)CC1c1ccc(C)cc1 (stereo unspecified) |
| inactive | inactive |  |  | CS(=O)(=O)c1ccc(C2=NN(C(N)=S)C(c3cccc(OCc4ccccc4)c3)C2)cc1 (stereo unspecified) |
|  | inactive |  | 9.35 | CS(=O)(=O)c1ccc(C2=NN(C(N)=S)C(c3ccc(Cl)cc3)C2)cc1 (stereo unspecified) |
|  | inactive |  | 7.61 | COc1ccc(C2CC(c3ccc(S(C)(=O)=O)cc3)=NN2C(C)=O)cc1 (stereo unspecified) |
